Experimental data taken from US20210113492A1, “METHOD FOR INHIBITING PROLIFERATION AND METASTASIS OF CANCER CELLS BY USING NAPHTHOQUINONE DERIVATIVE” (National Tsing Hua University, priority 2019, published 2021).
Converted amounts (≈) assume the structure as drawn.

Legend:
Type in all cases: cell-based
[1] = test system: human primary glioblastoma cells (U87); assay: Boyden chamber invasion assay, U87; details: 2.5, 5 and 10 μM, 24 h, no dose dependency (FIG. 2B)
Description: Cells were harvested by […] and resuspended in a serum-free medium with 0.1% BSA. Then, […] of cell suspension (2×10^5 cells) was seeded into the upper insert of SPLInsert with Polyethylene terephthalate (PET) membrane (pore size: 8.0 μm) (SPL Lifesciences, Korea) pre-coated with matrigel (BD Biosciences, San Jose, Calif.). The bottom well of 24-well plate of SPLInsert was filled with cell medium containing 10% FBS with different concentrations of isoplumbagin (5, 7.5 and 10 μM, Experimental group of oral squamous cell carcinoma cells (OC3-IV2); 2.5, 5 and 10 μM, Experimental groups of human primary glioblastoma cells (U87), human non-small cell lung carcinoma cells (H1299), human prostate cancer cells (PC3) and human cervical cancer cells (Hela)) or without isoplumbagin (DMSO added). […] Number of cells was counted using Image J. Relative invasion ability was calculated as cell number per area.
FIGS. 2A-2E show the inhibitory effect of different doses of isoplumbagin on invasion for oral squamous cell carcinoma cells (OC3-IV2), human primary glioblastoma cells (U87), human non-small cell lung carcinoma cells (H1299), prostate cancer cells (PC3) and cervical cancer cells (Hela) assessed with the Boyden chamber assays. *Compared with solvent control (DMSO). […]

[2] = test system: prostate cancer cells (PC3); assay: MTT survival assay, PC3; details: Homo sapiens, 48 h, read-out: IC50, survival rate
Description: According to the present invention, human prostate cancer cell line PC3 cells were obtained from ATCC (ATCC® ^CRL-1435™) and maintained in DMEM medium supplemented with 10% FBS, 1% L-Gln and 1% AA. Cells were maintained in an atmosphere containing 5% CO2 at 37° C., and the culture medium was replaced every 2 days.
(§1) Isoplumbagin (AKOS006277326, acquired from AKos GmbH, Steinen, Germany) was dissolved in dimethyl sulfoxide (DMSO) and added to the medium, so that the final concentration of DMSO was less than 0.1%. The survival rate of isoplumbagin on OC3-IV2, U87, H1299 and PC3 cell lines was determined using the 3-(4,5-dimethylthiazol-2-yl)-2,5-diphenyltetrazolium bromide (MTT; Sigma-Aldrich) assays. 3×10^3 cells/well were seeded in 96-well plates. After incubation for 24 h, cells were treated with isoplumbagin at various concentrations (0, 1, 5, 10, 25, 50 and 100 μM) and incubated for a further 48 h. At the end of treatment, 10 μL 5 mg/mL MTT was added to each well. After incubation at 37° C. for 3 h, medium was removed and DMSO was added to each well to dissolve reduced MTT product formazan. The absorbance of dissolved formazan was measured at 550 nm wavelengths by a spectrophotometer. […]

[3] = test system: human prostate cancer cells (PC3); assay: Mitochondrial morphology and distribution by immunofluorescence staining, PC3; details: 1 μM or 2.5 μM, 24 hours, anti-TOM20 staining
Description: The effects of isoplumbagin on mitochondrial morphology and distribution of OC3-IV2, U87, H1299 and PC3 cell lines were measured by immunofluorescence staining After OC3-IV2, U87, H1299, and PC3 cells were treated with DMSO, 1 μM, or 2.5 μM isoplumbagin for 24 hours, cells were fixed by 4% (v/v) paraformaldehyde and permeabilized by 0.1% (v/v) Triton X-100. Cells were incubated in blocking buffer containing 1% bovine serum albumin. After blocking, cells were incubated overnight with indicated primary antibodies against TOM20 (a mitochondria marker, sc-11415, Santa Cruz), and then incubated with Alexa Fluor 488-conjugated secondary antibodies (A11001, Invitrogen). Nucleus was stained with DAPI, actin was stained with rhodamine phalloidin (A12379, Invitrogen) and cells were mounted using Prolong Gold reagent (P36930, Invitrogen). 63 images were taken by LSM800 confocal microscopes (Zeiss).
FIGS. 5A-5D show the effect of isoplumbagin on mitochondrial morphogenesis and distribution of oral squamous cell carcinoma cells (OC3-IV2), human primary glioblastoma cells (U87), human non-small cell lung carcinoma cells (H1299) and human prostate cancer cells (PC3). Cells treated with either solvent control (DMSO) or isoplumbagin were determined by immunofluorescence staining using anti-TOM20 (mitochondria, green) antibody, rhodamine phalloidin (actin, red) and DAPI (nucleus, blue). […]

[4] = test system: oral squamous cell carcinoma cells (OC3-IV2); assay: MTT survival assay, OC3-IV2; details: Homo sapiens, 48 h, read-out: IC50, survival rate
Description: According to the present invention, human oral cancer cell line OC3-IV2 cells (Lin S C et al, J Oral Pathol Med. 2004 February; 33(2):79-86 and Lu Y C et al, Cancer Prey Res (Phila). 2012 April; 5(4):665-74) were cultured in a 1:1 ratio of Dulbecco's modified Eagle medium (DMEM; Invitrogen) and keratinocyte serum-free medium (KSFM; Invitrogen) containing 10% fetal bovine serum (FBS; Invitrogen, Carlsbad, Calif., USA), 1% L-glutamine (L-Gln, Invitrogen) and 1% antibiotic-antimycotic (AA, Invitrogen). Cells were maintained in a humidified atmosphere containing 5% CO2 at 37° C., and the culture medium was replaced every 2 days.
as §1, with “After incubation at 37° C. for 3 h, medium was removed and DMSO was added to each well to dissolve reduced MTT product formazan.” left out

Q: How did the “cancer cells migrating through the membrane (invasion)” value [1] turn out when `CC1=CC(=O)c2cccc(O)c2C1=O` [isoplumbagin, 5-hydroxy-3-methyl-1,4-naphthoquinone] was run?
A: The value was “decrease significantly”.

Q: What about the IC50 [2] of the same molecule?
A: Its IC50 is 1.13 µg/mL (≈ 6 µM).

Q: What about the “mitochondrial morphogenesis and distribution” value [3] of the same molecule?
A: Its value is “can alter the mitochondrial morphogenesis and distribution”.

Q: What about the IC50 [4] of the same molecule?
A: The IC50 was 1.02 µg/mL (≈ 5.42 µM).
